One assay has as its system T-47D cells. As to the kind of experiment: Caspase cascade activation (N-(Ac-DEVD)-N'-ethoxycarbonyl-R110 fluorogenic substrate) in T-47D cells. Type of assay: cell-based, Human. The following applies: 48 h incubation; for EC50: Homo sapiens, T47D, caspase activation potency, read-out: T47 EC50; for T47 Ratio 48 hr: caspase activity: ratio of net RFU of test compound to control. As to the method:
(§1) Human breast cancer cell lines T-47D and ZR-75-1 were grown according to media component mixtures designated by American Type Culture Collection +10% FCS (Invitrogen Corporation, Life Technologies division), in a 5% CO2-95% humidity incubator at 37° C. T-47D and ZR-75-1 cells were maintained at a cell density between 50 and 80% confluency at a cell density of 0.1 to 0.6×10^6 cells/ml. Cells were harvested at 600× g and resuspended at 0.65×10^6 cells/ml into appropriate media +10% FCS. An aliquot of […] of cells was added to a well of a […] microtiter plate containing 2.5 μl of a 10% DMSO in RPMI-1640 media solution containing 0.16 to 100 μM of 4-(3-methoxyanilino)-2-(2-pyridinyl)-6-(trifluoromethyl)pyrimidine or other test compound (0.016 to 10 μM final). An aliquot of 22.5 μl of cells was added to a well of a 384-well microtiter plate containing 2.5 μl of a 10% DMSO in RPMI-1640 media solution without test compound as the control sample. The samples were mixed by agitation and then incubated at 37° C. for 48 h in a 5% CO2-95% humidity incubator. After incubation, the samples were removed from the incubator and 25 μl of a solution containing 14 μM of N-(Ac-DEVD)-N′-ethoxycarbonyl-R110 fluorogenic substrate (Cytovia, Inc.; WO99/18856), 20% sucrose (Sigma), 20 mM DTT (Sigma), 200 mM NaCl (Sigma), 40 mM Na PIPES buffer pH 7.2 (Sigma), and 500 μg/ml lysolecithin (Calbiochem) was added. The samples were mixed by agitation and incubated at room temperature. Using a fluorescent plate reader (Model SpectraMax Gemini, Molecular Devices), an initial reading (T=0) was made approximately 1-2 min after addition of the substrate solution, employing excitation at 485 nm and emission at 530 nm, to determine the background fluorescence of the control sample. After the 3 h incubation, the samples were read for fluorescence as above (T=3 h).
(§2) The Relative Fluorescence Unit values (RFU) were used to calculate the sample readings as follows:
(§3) RFU(T=3h)−Control RFU(T=0)=Net RFU(T=3h)
(§4) The activity of caspase cascade activation was determined by the ratio of the net RFU value for 4-(3-methoxyanilino)-2-(2-pyridinyl)-6-(trifluoromethyl)pyrimidine or other test compound to that of control samples. The EC50 (nM) was determined by a sigmoidal dose-response calculation (Prism 2.0, GraphPad Software Inc.).

A further assay relates to ZR-75-1 cells. Briefly: Caspase cascade activation (N-(Ac-DEVD)-N'-ethoxycarbonyl-R110 fluorogenic substrate) in ZR-75-1 cells. The class given is cell-based, Human. To be noted: ZR-75-1, 48 h incubation; for EC50: Homo sapiens, caspase activation potency; for ZR Ratio 48 hr: caspase activity: ratio of net RFU of test compound to control. As to the method:
as §1, §2, §3, §4

SMILES strings stand for the structures.

Turning to `COc1cccc(Nc2nc(-c3ccc(C(F)(F)F)cn3)nc(C)c2Cl)c1` [Example 15, 4-(3-Methoxyanilino)-5-chloro-6-methyl-2-[5-(trifluoromethyl)-2-pyridinyl]pyrimidine], in the assay with T-47D cells, the concentration for a half-maximal effect (EC50) is > 5000 nM and the “T47 Ratio 48 hr” value was found to be 2.5. For the same molecule, in the assay on ZR-75-1 cells, the EC50 was > 5000 nM and the “ZR Ratio 48 hr” value is reported as 2.7.
`COc1cccc(Nc2cc(C)nc(-c3ccccn3)n2)c1` [Example 16, 4-(3-Methoxyanilino)-6-methyl-2-(2-pyridinyl)pyrimidine]: in the assay on T-47D cells, the 50% effective concentration (EC50) is 288 nM and the “T47 Ratio 48 hr” value is on record as 19.5. In the assay with ZR-75-1 cells, the EC50 is 292 nM and the “ZR Ratio 48 hr” value turned out to be 3.3.
As to `COc1cccc(Nc2nc(-c3ccccn3)ncc2OC)c1` [Example 18, 4-(3-Methoxyanilino)-5-methoxy-2-(2-pyridinyl)pyrimidine], in the assay with T-47D cells, the EC50 is > 5000 nM and the “T47 Ratio 48 hr” value worked out at 1.9. Also, in the assay on ZR-75-1 cells, the EC50 stood at 4900 nM and the “ZR Ratio 48 hr” value came out at 7.8.
Consider `COc1cccc(Nc2cc(C(F)(F)F)nc(-c3cccnc3)n2)c1` [Example 19, 4-(3-Methoxyanilino)-2-(3-pyridinyl)-6-(trifluoromethyl)pyrimidine], for which, in the assay on T-47D cells, the EC50 came out at 471 nM and the “T47 Ratio 48 hr” value was 16.7. Further, in the assay on ZR-75-1 cells, the response was half-maximal at 214 nM (EC50) and the “ZR Ratio 48 hr” value is 8.9.
Take `COCc1cc(Nc2cccc(OC)c2)nc(-c2cccc(C)c2)n1` [Example 20, 4-(3-Methoxyanilino)-6-(methoxymethyl)-2-(3-methylphenyl)pyrimidine]: in the assay with T-47D cells, the half-maximal effective concentration (EC50) is > 5000 nM and the “T47 Ratio 48 hr” value is listed as 1.6. Besides, in the assay on ZR-75-1 cells, the EC50 is > 5000 nM and the “ZR Ratio 48 hr” value is 1.1.
Regarding `COc1ccc(OC)c(Nc2cc(C)nc(-c3ccccn3)n2)c1` [Example 21, 4-(2,5-Dimethoxyanilino)-6-methyl-2-(2-pyridinyl)pyrimidine], in the assay on T-47D cells, the half-maximal effective concentration (EC50) is < 156 nM and the “T47 Ratio 48 hr” value amounted to 15.5. Further, in the assay with ZR-75-1 cells, the concentration giving a half-maximal response (EC50) was < 156 nM and the “ZR Ratio 48 hr” value was determined as 12.0.
For `COc1cccc(Nc2cc(C)nc(-c3ccccn3)n2)c1OC` [Example 22, 4-(2,3-Dimethoxyanilino)-6-methyl-2-(2-pyridinyl)pyrimidine], in the assay on T-47D cells, the EC50 is > 5000 nM and the “T47 Ratio 48 hr” value is 1.9. In the assay with ZR-75-1 cells, the concentration giving a half-maximal response (EC50) came out at 6050 nM and the “ZR Ratio 48 hr” value worked out at 3.5.
For the molecule `COc1ccc(OC)c(Nc2cc(C(F)(F)F)nc(-c3cnccn3)n2)c1` [Example 76, 4-(2,5-Dimethoxyanilino)-2-(2-pyrazinyl)-6-(trifluoromethyl)pyrimidine], in the assay on T-47D cells, the 50% effective concentration (EC50) is < 150 nM and the “T47 Ratio 48 hr” value came out at 8.5.
On to `COc1ccc(Cl)c(Nc2cc(C(F)(F)F)nc(-c3cnccn3)n2)c1` [Example 82, 4-(2-Chloro-5-methoxyanilino)-2-(2-pyrazinyl)-6-(trifluoromethyl)pyrimidine], for which, in the assay on T-47D cells, the EC50 was determined as 254 nM and the “T47 Ratio 48 hr” value came out at 15.3.
`Oc1ccc(Cl)c(Nc2cc(C(F)(F)F)nc(-c3cnccn3)n2)c1` [Example 194, 4-(2-Chloro-5-hydroxyanilino)-2-(2-pyrazinyl)-6-trifluoromethylpyrimidine]: in the assay with T-47D cells, the EC50 amounted to 107 nM and the “T47 Ratio 48 hr” value is listed as 11.7.
As to `COc1cc(Nc2cc(C(F)(F)F)nc(-c3ccccn3)n2)cc(OC)c1` [Example 195, 4-(3,5-Dimethoxyanilino)-2-(2-pyridinyl)-6-trifluoromethylpyrimidine], in the assay on T-47D cells, the EC50 came out at 20 nM and the “T47 Ratio 48 hr” value is reported as 8.4.
On to `Cc1ccc(C)c(Nc2cc(C(F)(F)F)nc(-c3cnccn3)n2)c1` [Example 196, 4-(2,5-Dimethylanilino)-2-(2-pyrazinyl)-6-trifluoromethylpyrimidine], for which, in the assay on T-47D cells, the EC50 is 527 nM and the “T47 Ratio 48 hr” value is on record as 11.3.

The EC50 is the concentration needed to bring the measured effect to its halfway point.

Source of the values: US6716851B2, “Substituted 2-aryl-4-arylaminopyrimidines and analogs as activators or caspases and inducers of apoptosis and the use thereof” (Cytovia, Inc., priority 2000, dated 2004).
